Calls of active or inactive are those of the source. The rule behind the calls is not given here.
Assays:
[1] = tested on: Protein cereblon/Epidermal growth factor receptor (Homo sapiens), P00533+Q96SW2 [L858R,T790M]; test: Protac activity at CRBN/EGFR L858R/T790M mutant in human NCI-H1975 cells assessed as L858R/T790M mutant degradation at 3 uM incubated for 48 hrs by Western blot analysis; type: cell-based
A549 = test: Anti-proliferative activity against human A549 cells assessed as reduction in cell proliferation incubated for 72 hrs by MTT assay; type: functional, cell-based; settings: A549, 72 h
PC-9 = test: Anti-proliferative activity against human PC-9 cells assessed as reduction in cell proliferation incubated for 72 hrs by MTT assay; type: functional, cell-based; settings: PC-9, 72 h
NCI-H1975 = test: Anti-proliferative activity against human NCI-H1975 cells assessed as reduction in cell proliferation incubated for 72 hrs by MTT assay; type: functional, cell-based; settings: NCI-H1975, 72 h
[2] = biological target: Epidermal growth factor receptor (Homo sapiens, UniProt P00533); test: Inhibition of wild type EGFR (unknown origin) incubated for 10 mins by HTRF KinEASE-TK assay
[3] = biological target: Epidermal growth factor receptor (Homo sapiens, UniProt P00533, L858R/T790M); test: Inhibition of EGFR L858R/T790M mutant (unknown origin) incubated for 35 mins by HTRF KinEASE-TK assay
Homo sapiens = species on record: Homo sapiens; test: Selectivity index, ratio of IC50 for wild type EGFR (unknown origin) to IC50 for Protein cereblon/Epidermal growth factor receptor L858R/T790M mutant

| IC50 (A549) [µM] | IC50 (PC-9) [µM] | IC50 (NCI-H1975) [µM] | Compound | Activity [1] | IC50 [2] [µM] | IC50 [3] [µM] | Ratio IC50 (Homo sapiens) |
| --- | --- | --- | --- | --- | --- | --- | --- |
| 7.57 | 0.27 | 0.13 | C=CC(=O)Nc1cccc(Nc2nc(Nc3ccc(N4CCN(C(C)=O)CC4)cc3OC)ncc2C(F)(F)F)c1 [ROCILETINIB] | – | – | – | – |
| > 100 | 14.4 | 12.8 | C=CC(=O)Nc1cccc(Nc2nc(Nc3ccc(N4CCN(CC(=O)NCCCCCNC(=O)CNc5cccc6c5C(=O)N(C5CCC(=O)NC5=O)C6=O)CC4)cc3OC)ncc2C(F)(F)F)c1 (configuration not stated) | – | – | – | – |
| > 100 | 13.4 | 8.89 | C=CC(=O)Nc1cccc(Nc2nc(Nc3ccc(N4CCN(CC(=O)NCCNC(=O)CNc5cccc6c5C(=O)N(C5CCC(=O)NC5=O)C6=O)CC4)cc3OC)ncc2C(F)(F)F)c1 (configuration not stated) | – | – | – | – |
| > 100 | 4.62 | 1.56 | C=CC(=O)Nc1cccc(Nc2nc(Nc3ccc(N4CCN(C(=O)CCCCC(=O)Nc5cccc6c5C(=O)N(C5CCC(=O)NC5=O)C6=O)CC4)cc3OC)ncc2C(F)(F)F)c1 (configuration not stated) | – | – | – | – |
| > 100 | 1.89 | 4.68 | C=CC(=O)Nc1cccc(Nc2nc(Nc3ccc(N4CCN(CC(=O)NCCNc5cccc6c5C(=O)N(C5CCC(=O)N(C)C5=O)C6=O)CC4)cc3OC)ncc2C(F)(F)F)c1 (configuration not stated) | – | 1.4 | 0.134 | 11 |
| > 100 | 8.77 | 8.55 | C=CC(=O)Nc1cccc(Nc2nc(Nc3ccc(N4CCN(C(=O)CCCCCCCCCCC(=O)Nc5cccc6c5C(=O)N(C5CCC(=O)NC5=O)C6=O)CC4)cc3OC)ncc2C(F)(F)F)c1 (configuration not stated) | – | – | – | – |
| > 100 | 7.34 | 9.31 | C=CC(=O)Nc1cccc(Nc2nc(Nc3ccc(N4CCN(CC(=O)NCCOc5cccc6c5C(=O)N(C5CCC(=O)NC5=O)C6=O)CC4)cc3OC)ncc2C(F)(F)F)c1 (configuration not stated) | – | – | – | – |
| > 100 | 5.31 | 1.53 | C=CC(=O)Nc1cccc(Nc2nc(Nc3ccc(N4CCN(C(=O)CCCCCCCC(=O)Nc5cccc6c5C(=O)N(C5CCC(=O)NC5=O)C6=O)CC4)cc3OC)ncc2C(F)(F)F)c1 (configuration not stated) | – | – | – | – |
| > 100 | 6.61 | 17 | C=CC(=O)Nc1cccc(Nc2nc(Nc3ccc(N4CCN(CC(=O)NCCCCCCNC(=O)CNc5cccc6c5C(=O)N(C5CCC(=O)NC5=O)C6=O)CC4)cc3OC)ncc2C(F)(F)F)c1 (configuration not stated) | – | – | – | – |
| > 100 | 3.69 | 2.81 | C=CC(=O)Nc1cccc(Nc2nc(Nc3ccc(N4CCN(C(=O)CCCCCCCCCC(=O)Nc5cccc6c5C(=O)N(C5CCC(=O)NC5=O)C6=O)CC4)cc3OC)ncc2C(F)(F)F)c1 (configuration not stated) | – | – | – | – |
| > 100 | 13.2 | 11.7 | C=CC(=O)Nc1cccc(Nc2nc(Nc3ccc(N4CCN(CC(=O)NCCCCNC(=O)CNc5cccc6c5C(=O)N(C5CCC(=O)NC5=O)C6=O)CC4)cc3OC)ncc2C(F)(F)F)c1 (configuration not stated) | – | – | – | – |
| > 100 | 26.7 | 17 | C=CC(=O)Nc1cccc(Nc2nc(Nc3ccc(N4CCN(C(=O)CCCCCCCCC(=O)Nc5cccc6c5C(=O)N(C5CCC(=O)NC5=O)C6=O)CC4)cc3OC)ncc2C(F)(F)F)c1 (configuration not stated) | – | – | – | – |
| > 100 | 18.1 | 17.1 | C=CC(=O)Nc1cccc(Nc2nc(Nc3ccc(N4CCN(C(=O)CCCCCCCCCCCC(=O)Nc5cccc6c5C(=O)N(C5CCC(=O)NC5=O)C6=O)CC4)cc3OC)ncc2C(F)(F)F)c1 (configuration not stated) | – | – | – | – |
| > 100 | 3.51 | 4.72 | C=CC(=O)Nc1cccc(Nc2nc(Nc3ccc(N4CCN(CC(=O)NCCNc5ccc6c(c5)C(=O)N(C5CCC(=O)NC5=O)C6=O)CC4)cc3OC)ncc2C(F)(F)F)c1 (configuration not stated) | – | – | – | – |
| > 100 | 3.43 | 0.52 | C=CC(=O)Nc1cccc(Nc2nc(Nc3ccc(N4CCN(CC(=O)NCCCCCNc5cccc6c5C(=O)N(C5CCC(=O)NC5=O)C6=O)CC4)cc3OC)ncc2C(F)(F)F)c1 (configuration not stated) | – | – | – | – |
| > 100 | 46.5 | 62 | C=CC(=O)Nc1cccc(Nc2nc(Nc3ccc(N4CCN(C(=O)CCCCCCCCCCCCC(=O)Nc5cccc6c5C(=O)N(C5CCC(=O)NC5=O)C6=O)CC4)cc3OC)ncc2C(F)(F)F)c1 (configuration not stated) | – | – | – | – |
| > 100 | 3.28 | 4.14 | C=CC(=O)Nc1cccc(Nc2nc(Nc3ccc(N4CCN(CC(=O)NCCCCCCNc5cccc6c5C(=O)N(C5CCC(=O)NC5=O)C6=O)CC4)cc3OC)ncc2C(F)(F)F)c1 (configuration not stated) | – | – | – | – |
| > 100 | 2.58 | 5.76 | C=CC(=O)Nc1cccc(Nc2nc(Nc3ccc(N4CCN(CC(=O)NCCCNc5cccc6c5C(=O)N(C5CCC(=O)NC5=O)C6=O)CC4)cc3OC)ncc2C(F)(F)F)c1 (configuration not stated) | – | – | – | – |
| > 100 | 2.55 | 5.02 | C=CC(=O)Nc1cccc(Nc2nc(Nc3ccc(N4CCN(C(=O)CCCCCCC(=O)Nc5cccc6c5C(=O)N(C5CCC(=O)NC5=O)C6=O)CC4)cc3OC)ncc2C(F)(F)F)c1 (configuration not stated) | – | – | – | – |
| 33.3 | 4.86 | 8.36 | C=CC(=O)Nc1cccc(Nc2nc(Nc3ccc(N4CCN(CC(=O)NCCNc5cccc6c5CN(C5CCC(=O)NC5=O)C6=O)CC4)cc3OC)ncc2C(F)(F)F)c1 (configuration not stated) | – | 2.4 | 0.965 | 2.5 |
| > 100 | 7.67 | 7.35 | C=CC(=O)Nc1cccc(Nc2nc(Nc3ccc(N4CCN(CC(=O)NCCCNC(=O)CNc5cccc6c5C(=O)N(C5CCC(=O)NC5=O)C6=O)CC4)cc3OC)ncc2C(F)(F)F)c1 (configuration not stated) | – | – | – | – |

| Compound | IC50 (A549) [µM] | IC50 (PC-9) [µM] | IC50 (NCI-H1975) [µM] | Activity [1] | IC50 [2] [µM] | IC50 [3] [µM] | Ratio IC50 (Homo sapiens) |
| --- | --- | --- | --- | --- | --- | --- | --- |
| C=CC(=O)Nc1cccc(Nc2nc(Nc3ccc(N4CCN(CCOCCNc5cccc6c5C(=O)N(C5CCC(=O)NC5=O)C6=O)CC4)cc3OC)ncc2C(F)(F)F)c1 (configuration not stated) | 36.9 | 0.5 | 0.22 | Active | 0.364 | 0.0241 | 15 |
| C=CC(=O)Nc1cccc(Nc2nc(Nc3ccc(N4CCN(C(=O)CCCCNc5cccc6c5C(=O)N(C5CCC(=O)NC5=O)C6=O)CC4)cc3OC)ncc2C(F)(F)F)c1 (configuration not stated) | > 100 | 6.74 | 1.09 | Active | 0.614 | 0.121 | 5 |
| C=CC(=O)Nc1cccc(Nc2nc(Nc3ccc(N4CCN(C(=O)CCCC(=O)Nc5cccc6c5C(=O)N(C5CCC(=O)NC5=O)C6=O)CC4)cc3OC)ncc2C(F)(F)F)c1 (configuration not stated) | > 100 | 1.35 | 0.95 | Active | 3.23 | 0.033 | 98 |
| C=CC(=O)Nc1cccc(Nc2nc(Nc3ccc(N4CCN(C(=O)CCCCCC(=O)Nc5cccc6c5C(=O)N(C5CCC(=O)NC5=O)C6=O)CC4)cc3OC)ncc2C(F)(F)F)c1 (configuration not stated) | 29.8 | 0.9 | 0.59 | Active | 0.648 | 0.0203 | 32 |

From ChEMBL document CHEMBL5113409, “Design and synthesis of proteolysis targeting chimeras (PROTACs) as an EGFR degrader based on CO-1686” (Eur J Med Chem, 2022)
